The subject of data set [1] is Bovidae. The note with it: subchronic, oral, diet; for LEL: duration: 12 weeks, no effects.
In data set [2] the test system is Ovis sp. As to conditions: oral, diet.
Data set [3] relates to Gallus gallus. The note with it: reproduction developmental, oral, diet, F.
Data set [4] relates to Canidae. As to conditions: chronic, oral, Beagle, organ weight.
In data set [5] the test system is Oncorhynchus mykiss. As to conditions: chronic/long-term; duration: 240 days; oral; feed; clinical chemistry.
For data set [6], the system named is Sus scrofa. As to conditions: subchronic; duration: 60 days; oral; diet; Not specified; no effects.

Usually NOAEL stands for the highest dose or exposure tested at which no adverse effect was seen. Turning to `ClC1=C(Cl)[C@]2(Cl)[C@H]3[C@H]([C@@H]4C=C[C@H]3C4)[C@@]1(Cl)C2(Cl)Cl` [Aldrin], the LEL in data set [1] (M) came to 0.3 mg/kg-day; in data set [2] (subchronic, duration: 12 weeks, no effects), 0.3 mg/kg-day. Further, the NOAEL is 1.5 mg/kg-day in data set [1] (duration: 43 days, F, clinical signs); 0.06 mg/kg-day in data set [3] (duration: 2 years, no effects); 0.05 mg/kg-day in data set [4] (duration: 15.6 months, diet, M/F).
As to `ClC1=C(Cl)[C@]2(Cl)[C@@H]3[C@@H]4C[C@@H]([C@H]5O[C@@H]45)[C@@H]3[C@@]1(Cl)C2(Cl)Cl` [Dieldrin], the LEL turned out to be 0.08 mg/kg-day in data set [1] (F), 0.06 mg/kg-day in data set [1] (M) and 1.2 mg/kg-day in data set [6]. Further, the NOAEL in data set [2] (chronic, duration: 32 weeks, body weight) turned out to be 1 mg/kg-day; in data set [3] (duration: 13 months, mortality), 0.6 mg/kg-day; in data set [4] (duration: 2 years, capsule), 0.005 mg/kg-day. In data set [5], this compound displayed an LOEL of 14 µg/kg-day.

Source of the values: EPA's ToxValDB 9.5 (doi:10.2903/j.efsa.2005.285).
